Measurements published in ChEMBL document CHEMBL4011652, “Discovery of Novel Potent Reversible and Irreversible Myeloperoxidase Inhibitors Using Virtual Screening Procedure” (J Med Chem, 2017).
pIC50: −log10 of the molar value.

Legend:
[1] = target: T1, Myeloperoxidase (Homo sapiens) (UniProt P05164); experiment: Inhibition of recombinant MPO (unknown origin) assessed as reduction in taurine chloramine production at 5 uM preincubated with enzyme and taurine followed by H2O2 addition measured after 5 mins relative to control
T1 sequence (whole entry): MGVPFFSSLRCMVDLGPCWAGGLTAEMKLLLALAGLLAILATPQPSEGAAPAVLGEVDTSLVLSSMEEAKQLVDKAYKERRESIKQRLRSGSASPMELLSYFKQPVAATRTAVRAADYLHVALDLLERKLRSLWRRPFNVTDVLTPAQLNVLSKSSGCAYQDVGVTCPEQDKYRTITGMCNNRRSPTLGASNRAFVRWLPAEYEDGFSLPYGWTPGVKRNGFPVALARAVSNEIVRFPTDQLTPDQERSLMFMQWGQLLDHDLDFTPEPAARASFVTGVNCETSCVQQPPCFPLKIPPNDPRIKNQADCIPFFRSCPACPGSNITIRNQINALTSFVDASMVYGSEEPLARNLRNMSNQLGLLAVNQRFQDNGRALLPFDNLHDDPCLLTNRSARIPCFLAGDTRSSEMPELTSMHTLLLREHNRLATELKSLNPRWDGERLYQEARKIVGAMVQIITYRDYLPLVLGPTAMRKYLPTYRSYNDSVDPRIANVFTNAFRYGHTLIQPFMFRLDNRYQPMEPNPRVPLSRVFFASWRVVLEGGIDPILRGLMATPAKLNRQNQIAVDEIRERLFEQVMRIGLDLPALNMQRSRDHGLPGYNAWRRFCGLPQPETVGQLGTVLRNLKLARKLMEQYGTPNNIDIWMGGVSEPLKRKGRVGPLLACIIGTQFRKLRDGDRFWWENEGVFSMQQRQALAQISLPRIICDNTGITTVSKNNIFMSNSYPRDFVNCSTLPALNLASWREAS

[2] = target: T1, Myeloperoxidase (Homo sapiens); experiment: Inhibition of MPO (unknown origin) assessed as apparent bi-molecular rate constant for PorFe(4)=O radical reduction by stopped-flow spectroscopic analysis
[3] = target: T1, Myeloperoxidase (Homo sapiens); experiment: Inhibition of MPO (unknown origin) assessed as apparent bi-molecular rate constant for PorFe(4)-OH reduction by stopped-flow spectroscopic analysis
Myeloperoxidase [4] = target: T2, Myeloperoxidase (Homo sapiens, UniProt P05164); experiment: Inhibition of recombinant MPO (unknown origin) assessed as reduction in taurine chloramine production preincubated with enzyme and taurine followed by H2O2 addition measured after 5 mins
T2 sequence (P05164 whole entry): T1 sequence (whole entry)

[5] = target: T1, Myeloperoxidase (Homo sapiens); experiment: Inhibition of recombinant MPO (unknown origin) assessed as reduction in TMB peroxidation by measuring residual activity at 5 uM in presence of H2O2 incubated for 5 mins followed by 100 fold enzyme dilution relative to control
Myeloperoxidase [6] = target: T2, Myeloperoxidase; experiment: Inhibition of recombinant MPO (unknown origin) assessed as reduction in LDL oxidation in presence of H2O2 and HCl after 5 mins by ELISA
[7] = target: T1, Myeloperoxidase (Homo sapiens); experiment: Inhibition of recombinant MPO (unknown origin) assessed as reduction in TMB peroxidation by measuring residual activity at 5 uM in presence of H2O2 and NaCl incubated for 5 mins followed by 100 fold enzyme dilution relative to control
NHDF = experiment: Cytotoxicity against NHDF assessed as reduction in cell viability after 72 hrs by MTT assay; format: cell-based; conditions: Homo sapiens
Lactoperoxidase = Lactoperoxidase (Bos taurus, UniProt P80025); experiment: Inhibition of bovine milk LPO assessed as reduction in NaOSCN production in presence of H2O2/NaSCN after 5 mins
[8] = Selectivity ratio of IC50 for bovine milk LPO to IC50 for recombinant MPO (unknown origin)
[9] = target: T1, Myeloperoxidase (Homo sapiens); experiment: Inhibition of recombinant MPO (unknown origin) assessed as reduction in TMB peroxidation by measuring residual activity at 5 uM in absence of H2O2 incubated for 5 mins followed by 100 fold enzyme dilution relative to control
Plasma = experiment: Plasma concentration in po dosed human; format: ADME, organism-based; conditions: in vivo

Structure (SMILES): C[C@H](COc1ccccc1)N[C@@H](C)[C@@H](O)c1ccc(O)cc1
- inhibition [1]: 5.32%

Structure (SMILES): CSc1ccc2c(c1)N(CC[C@H]1CCCCN1C)c1ccccc1S2
- inhibition [1]: 24.2%
- Kapp [2]: 5.2 ×10⁶ /M/s
- Kapp [3]: 1.7 ×10⁴ /M/s
- pIC50 (Myeloperoxidase [4]): < 5.30

Structure (SMILES): NNc1nncc2ccccc12 [HYDRALAZINE]
- Activity [5]: 9%
- Kapp [2]: 7.1 ×10⁶ /M/s
- pIC50 (Myeloperoxidase [6]): 5.63
- Activity [7]: 6%
- pIC50 (NHDF): < 4.30
- pIC50 (Lactoperoxidase): 5.92
- Ratio IC50 [8]: 1.3
- Activity [9]: 76%

Structure (SMILES): Cc1cccc(Nc2ccccc2C(=O)O)c1C [MEFENAMIC ACID]
- Activity [5]: 82%
- pIC50 (Myeloperoxidase [6]): 5.66
- Activity [7]: 87%
- pIC50 (Myeloperoxidase [4]): 6.01
- Activity [9]: 87%

Structure (SMILES): O=c1c(O)c(-c2ccc(O)cc2)oc2cc(O)cc(O)c12 [KAEMPFEROL]
- Activity [5]: 81%
- Activity [7]: 84%
- pIC50 (Myeloperoxidase [4]): 5.65
- Activity [9]: 78%

Structure (SMILES): COc1cc(N[C@H](C)CCCN)c2ncccc2c1
- Activity [5]: 91%
- Activity [7]: 86%
- pIC50 (NHDF): < 4.30
- pIC50 (Lactoperoxidase): 6.10
- pIC50 (Myeloperoxidase [4]): 6.52
- Ratio IC50 [8]: 3
- Activity [9]: 86%

Structure (SMILES): O=C(N/N=C/c1ccc([N+](=O)[O-])o1)c1ccc(O)cc1 [NIFUROXAZIDE]
- pIC50 (Myeloperoxidase [4]): < 5.30

Structure (SMILES): O=c1c(O)c(-c2ccc(O)c(O)c2)oc2cc(O)cc(O)c12 [QUERCETIN]
- Activity [5]: 78%
- pIC50 (Myeloperoxidase [6]): 5.51
- Activity [7]: 79%
- pIC50 (NHDF): < 4.30
- pIC50 (Lactoperoxidase): 5.21
- pIC50 (Myeloperoxidase [4]): 5.94
- Ratio IC50 [8]: 5
- Activity [9]: 72%

Structure (SMILES): Cc1nc(N=C(N)N)nc2cc(F)ccc12
- pIC50 (Lactoperoxidase): 5.41
- pIC50 (Myeloperoxidase [4]): 7.40
- Ratio IC50 [8]: 30

Structure (SMILES): CCN(CC)CCNC(=O)c1cc(Cl)c(N)cc1OC [METOCLOPRAMIDE]
- pIC50 (Myeloperoxidase [6]): < 5.30
- pIC50 (NHDF): < 4.30
- concentration (Plasma): 200 to 400 nM
- pIC50 (Lactoperoxidase): < 5.30
- pIC50 (Myeloperoxidase [4]): 6.00 to 6.46

Structure (SMILES): Nc1cc(=O)[nH]c(CSc2ccc(F)c3ccccc23)n1
- inhibition [1]: 37.2%

Structure (SMILES): Cc1nc(NC(=N)N)nc2ccc(Cl)cc12
- pIC50 (Myeloperoxidase [4]): 6.20

Structure (SMILES): Cc1nc(N=C(N)N)nc2ccc(F)cc12
- pIC50 (Myeloperoxidase [4]): 6.84

Structure (SMILES): Fc1ccc2oc([C@H]3CCNC3)nc2c1
- pIC50 (NHDF): < 4.30
- pIC50 (Myeloperoxidase [4]): 5.76

Structure (SMILES): N#CC1=C(N)Oc2cc(O)ccc2C1c1cccc(C(F)(F)F)c1 (centres undefined)
- pIC50 (Myeloperoxidase [4]): 5.00

Structure (SMILES): O=c1cc(-c2ccc(O)cc2)oc2cc(O)ccc12
- pIC50 (Myeloperoxidase [4]): 5.24

Structure (SMILES): Cc1nc(N=C(N)N)nc2cc(Cl)ccc12
- pIC50 (Myeloperoxidase [4]): 7.02
